Patent US9359378B2, “Substituted oxazolo[3,4-a]pyrazines as pharmaceutcals” (BIOLAB SANUS FARMACÊUTICA LTDA., priority 2014, dated 2016)

Molecular target: T1, PDE6 (Bos taurus, UniProt P11541+P23439)
T1 construct: using an enzyme isolated from Cerep bovine retina; tissue Cerep; host or cells: bovine retina
T1 sequence (P11541 2-856 limits assumed): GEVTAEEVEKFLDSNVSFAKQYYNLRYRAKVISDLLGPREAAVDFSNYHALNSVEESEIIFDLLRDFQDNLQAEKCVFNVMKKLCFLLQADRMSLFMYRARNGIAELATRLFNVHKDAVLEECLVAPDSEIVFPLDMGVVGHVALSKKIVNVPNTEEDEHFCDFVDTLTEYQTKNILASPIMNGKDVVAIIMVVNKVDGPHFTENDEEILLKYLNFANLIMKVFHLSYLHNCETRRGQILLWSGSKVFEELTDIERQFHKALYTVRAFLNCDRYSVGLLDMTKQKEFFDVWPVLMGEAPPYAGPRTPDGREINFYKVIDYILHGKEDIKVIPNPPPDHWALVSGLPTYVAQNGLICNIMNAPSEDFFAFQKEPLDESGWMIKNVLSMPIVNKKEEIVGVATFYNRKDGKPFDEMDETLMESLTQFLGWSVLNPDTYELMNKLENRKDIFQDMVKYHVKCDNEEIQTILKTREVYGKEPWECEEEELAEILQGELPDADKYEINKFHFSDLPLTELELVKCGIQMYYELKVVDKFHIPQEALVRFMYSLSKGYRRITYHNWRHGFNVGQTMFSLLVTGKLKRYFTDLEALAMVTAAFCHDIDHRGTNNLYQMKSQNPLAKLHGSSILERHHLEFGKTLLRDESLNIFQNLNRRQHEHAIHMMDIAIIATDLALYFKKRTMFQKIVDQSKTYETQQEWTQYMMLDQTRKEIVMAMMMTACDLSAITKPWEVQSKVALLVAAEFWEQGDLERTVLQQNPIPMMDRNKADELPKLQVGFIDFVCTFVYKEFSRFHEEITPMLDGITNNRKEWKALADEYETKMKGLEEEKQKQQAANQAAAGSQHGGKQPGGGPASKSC
T1 sequence (P23439 2-850 limits assumed): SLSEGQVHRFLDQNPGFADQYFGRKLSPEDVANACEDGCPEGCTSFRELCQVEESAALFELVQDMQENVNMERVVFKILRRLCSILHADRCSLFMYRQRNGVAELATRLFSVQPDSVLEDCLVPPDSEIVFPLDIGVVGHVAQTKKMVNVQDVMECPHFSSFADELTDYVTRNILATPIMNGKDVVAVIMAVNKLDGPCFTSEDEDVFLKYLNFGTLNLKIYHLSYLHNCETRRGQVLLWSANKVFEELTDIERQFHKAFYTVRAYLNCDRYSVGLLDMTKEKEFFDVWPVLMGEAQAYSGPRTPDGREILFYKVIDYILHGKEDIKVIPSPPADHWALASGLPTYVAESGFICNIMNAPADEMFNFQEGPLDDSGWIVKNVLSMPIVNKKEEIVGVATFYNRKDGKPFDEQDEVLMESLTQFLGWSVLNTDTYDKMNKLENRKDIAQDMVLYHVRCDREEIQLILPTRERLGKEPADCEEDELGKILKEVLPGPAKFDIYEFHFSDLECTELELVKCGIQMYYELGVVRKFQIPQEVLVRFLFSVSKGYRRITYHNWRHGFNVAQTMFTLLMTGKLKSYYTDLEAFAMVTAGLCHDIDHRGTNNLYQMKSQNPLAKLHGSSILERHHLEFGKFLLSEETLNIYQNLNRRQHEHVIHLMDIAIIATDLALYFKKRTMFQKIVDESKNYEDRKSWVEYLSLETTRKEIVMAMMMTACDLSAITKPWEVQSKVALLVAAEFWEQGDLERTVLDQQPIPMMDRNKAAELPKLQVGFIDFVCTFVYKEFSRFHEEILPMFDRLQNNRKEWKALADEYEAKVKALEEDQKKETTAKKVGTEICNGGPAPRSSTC
Experiment: PDE6 enzyme inhibition (SPA, enzyme isolated from bovine retina)
Type: biochemical
Details: FIGS. 14 and 15, test concentration not given
Description: The effects of compounds BL-230 and BL-236 on PDE6 human enzyme activity were quantified by measuring the production of 5′GMP from cGMP, using an enzyme isolated from Cerep bovine retina of and the detection method used was scintillation proximity assay (SPA).
The test compound, the reference compound or water (control) were added to a buffer containing 40 mM Tris-HCl (pH 7.8), 3 mM MgCl2, 1.4 mM DTT, 0.21% BSA, 200 mM NH4Cl, 2 uM cGMP and 0.05 μCi of [^3H] cGMP. Then the reaction was started by adding the enzyme (final amount depending on the efficiency of the isolation) and the mixture was incubated for 60 minutes at 22° C. For basal control measurements, the enzyme was omitted from the reaction mixture. Following this, the SPA incubation beads were added. After 20 minutes at 22° C. under agitation, the amount of [^3H] 5′GMP was quantified with a scintillation counter (Topcount, Packard). The results were expressed as an inhibition percentage of the control enzyme activity. The standard inhibitory reference compound zaprinast was used, which was tested in each experiment at several concentrations to obtain an inhibition curve from which its IC50 value was calculated. […]

Compound | inhibition of PDE6 enzyme activity
O=C1C2=C(c3c[nH]c4ccccc34)OC(c3ccc4c(c3)OCO4)N2C(=O)CN1CCO (centres unmarked) [BL-230, 3-(benzo[d][1,3]dioxol-5yl)-7-(2-hydroxyethyl)-1-(1H-indol-3-yl)-6,7-dihydro-3H-oxazolo[3,4-a]pyrazine-5,8-dione] | 85%
C[C@@H](CO)N1CC(=O)N2C(=C(c3c[nH]c4ccccc34)OC2c2ccc3c(c2)OCO3)C1=O (stereo partly drawn) [BL-236, 3-(benzo[d][1,3]dioxol-5yl)-7-((S)1-hydroxypropan-2yl)-1-(1H-indol-3-yl)-6,7-dihydro-3H-oxazolo[3,4-a]pyrazine-5,8-dione] | 90%
